Target: T1, cAMPinG1 (Mus musculus, UniProt Q9DBC7, DEL187-189)
T1 construct: gene Prkar1a; PKA-R1α residues 108-186 and 190-381, N-terminus removed, cpGFP (from GCaMP6f) inserted in the β4–β5 loop replacing 187-189, engineered linkers/cpGFP, N-terminal RSET; expressed in HEK293T, lysate
Assay: sensor fluorescence titration in HEK293T lysate, Hill fit
Assay type: binding

T1 sequence (Q9DBC7 108-186, stated change not applied): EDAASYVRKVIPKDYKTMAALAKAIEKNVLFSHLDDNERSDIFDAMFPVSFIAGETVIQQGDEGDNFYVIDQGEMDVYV
T1 sequence (Q9DBC7 190-381, stated change not applied): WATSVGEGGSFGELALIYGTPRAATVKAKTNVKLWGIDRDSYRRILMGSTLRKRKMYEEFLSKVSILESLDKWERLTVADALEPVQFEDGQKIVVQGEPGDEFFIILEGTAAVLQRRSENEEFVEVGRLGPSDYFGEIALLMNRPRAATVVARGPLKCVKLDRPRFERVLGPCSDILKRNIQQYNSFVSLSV

- Kd: 12.2 µM
SMILES: Nc1nc2c(ncn2[C@@H]2O[C@@H]3COP(=O)(O)O[C@H]3[C@H]2O)c(=O)[nH]1 [cGMP]
